≈ marks a conversion by molar mass, not a printed value.
Assays:
Assay type in all cases: functional
[1] = system: Corynebacterium jeikeium; experiment: Antimicrobial activity against Corynebacterium jeikeium at <= 0.06 ug/ml by broth microdilution method
[2] = system: Corynebacterium jeikeium; experiment: Antimicrobial activity against Corynebacterium jeikeium at 0.25 ug/ml by broth microdilution method
[3] = system: Corynebacterium striatum; experiment: Antimicrobial activity against Corynebacterium striatum at 0.12 ug/ml by broth microdilution method
[4] = system: Corynebacterium striatum; experiment: Antimicrobial activity against Corynebacterium striatum at 0.25 ug/ml by broth microdilution method
[5] = system: Enterococcus avium; experiment: Antimicrobial activity against Enterococcus avium at 0.5 ug/ml by broth microdilution method
[6] = system: Enterococcus avium; experiment: Antimicrobial activity against Enterococcus avium at 4 ug/ml by broth microdilution method
[7] = system: Enterococcus casseliflavus; experiment: Antimicrobial activity against Enterococcus casseliflavus at <= 0.06 ug/ml by broth microdilution method
[8] = system: Enterococcus casseliflavus; experiment: Antimicrobial activity against Enterococcus casseliflavus at 2 ug/ml by broth microdilution method
[9] = system: Enterococcus durans; experiment: Antimicrobial activity against Enterococcus durans at 0.12 ug/ml by broth microdilution method
[10] = system: Enterococcus durans; experiment: Antimicrobial activity against Enterococcus durans at 0.25 ug/ml by broth microdilution method
[11] = system: Streptococcus; experiment: Antimicrobial activity against beta hemolytic Streptococci group G at 0.12 ug/ml by broth microdilution method
[12] = system: Streptococcus constellatus; experiment: Antimicrobial activity against viridans group Streptococcus constellatus at 0.12 ug/ml by broth microdilution method
[13] = system: Aerococcus; experiment: Antimicrobial activity against Aerococcus spp. at 0.5 ug/ml by broth microdilution method
[14] = system: Aerococcus; experiment: Antimicrobial activity against Aerococcus spp. at 2 ug/ml by broth microdilution method
[15] = system: Bacillus sp.; experiment: Antimicrobial activity against Bacillus spp. at 0.5 ug/ml by broth microdilution method; conditions: Bacillus sp. (in: firmicutes)
[16] = system: Bacillus sp.; experiment: Antimicrobial activity against Bacillus spp. at 1 ug/ml by broth microdilution method; conditions: Bacillus sp. (in: firmicutes)
[17] = system: Bacillus sp.; experiment: Antimicrobial activity against Bacillus spp. at 2 ug/ml by broth microdilution method; conditions: Bacillus sp. (in: firmicutes)
[18] = system: Bacillus cereus; experiment: Antimicrobial activity against Bacillus cereus at <= 0.06 ug/ml by broth microdilution method
[19] = system: Bacillus cereus; experiment: Antimicrobial activity against Bacillus cereus at 0.25 ug/ml by broth microdilution method
[20] = system: Bacillus cereus; experiment: Antimicrobial activity against Bacillus cereus at 1 ug/ml by broth microdilution method
[21] = system: Corynebacterium sp.; experiment: Antimicrobial activity against Corynebacterium spp. at 0.5 ug/ml by broth microdilution method
[22] = system: Corynebacterium sp.; experiment: Antimicrobial activity against Corynebacterium spp. at 1 ug/ml by broth microdilution method
[23] = system: Streptococcus; experiment: Antimicrobial activity against beta hemolytic Streptococcus group C at <= 0.06 ug/ml by broth microdilution method
[24] = system: Streptococcus; experiment: Antimicrobial activity against beta hemolytic Streptococcus group C at 0.5 ug/ml by broth microdilution method
[25] = system: Streptococcus salivarius; experiment: Antimicrobial activity against viridans group Streptococcus salivarius at 0.25 ug/ml by broth microdilution method
[26] = system: Streptococcus salivarius; experiment: Antimicrobial activity against viridans group Streptococcus salivarius at 1 ug/ml by broth microdilution method
[27] = system: Streptococcus anginosus; experiment: Antimicrobial activity against viridans group Streptococcus anginosus at 0.5 ug/ml by broth microdilution method
[28] = system: Streptococcus equinus; experiment: Antimicrobial activity against viridans group Streptococcus bovis at <= 0.06 ug/ml by broth microdilution method
[29] = system: Enterococcus gallinarum; experiment: Antimicrobial activity against Enterococcus gallinarum at 1 ug/ml by broth microdilution method
[30] = system: Enterococcus gallinarum; experiment: Antimicrobial activity against Enterococcus gallinarum at 2 ug/ml by broth microdilution method
[31] = system: Enterococcus gallinarum; experiment: Antimicrobial activity against Enterococcus gallinarum at 4 ug/ml by broth microdilution method
[32] = system: Enterococcus hirae; experiment: Antimicrobial activity against Enterococcus hirae at 0.25 ug/ml by broth microdilution method
[33] = system: Enterococcus hirae; experiment: Antimicrobial activity against Enterococcus hirae at 2 ug/ml by broth microdilution method
[34] = system: Enterococcus raffinosus; experiment: Antimicrobial activity against Enterococcus raffinosus at 1 ug/ml by broth microdilution method
[35] = system: Listeria monocytogenes; experiment: Antimicrobial activity against Listeria monocytogenes at 0.12 ug/ml by broth microdilution method
[36] = system: Listeria monocytogenes; experiment: Antimicrobial activity against Listeria monocytogenes at 0.5 ug/ml by broth microdilution method
[37] = system: Listeria monocytogenes; experiment: Antimicrobial activity against Listeria monocytogenes at 1 ug/ml by broth microdilution method
[38] = system: Rothia mucilaginosa; experiment: Antimicrobial activity against Rothia mucilaginosa at 0.25 ug/ml by broth microdilution method
[39] = system: Rothia mucilaginosa; experiment: Antimicrobial activity against Rothia mucilaginosa at 2 ug/ml by broth microdilution method
[40] = system: Aerococcus; experiment: Antimicrobial activity against Aerococcus spp. by broth microdilution method
[41] = system: Corynebacterium sp.; experiment: Antimicrobial activity against Corynebacterium spp. by broth microdilution method
[42] = system: Corynebacterium amycolatum; experiment: Antimicrobial activity against Corynebacterium amycolatum by broth microdilution method
[43] = system: Corynebacterium jeikeium; experiment: Antimicrobial activity against Corynebacterium jeikeium by broth microdilution method
[44] = system: Enterococcus avium; experiment: Antimicrobial activity against Enterococcus avium by broth microdilution method
[45] = system: Enterococcus durans; experiment: Antimicrobial activity against Enterococcus durans by broth microdilution method
[46] = system: Enterococcus hirae; experiment: Antimicrobial activity against Enterococcus hirae by broth microdilution method
[47] = system: Enterococcus raffinosus; experiment: Antimicrobial activity against Enterococcus raffinosus by broth microdilution method
[48] = system: Micrococcus luteus; experiment: Antimicrobial activity against Micrococcus luteus by broth microdilution method
[49] = system: Streptococcus mutans; experiment: Antimicrobial activity against viridans group Streptococcus mutans at 0.25 ug/ml by broth microdilution method
[50] = system: Streptococcus mutans; experiment: Antimicrobial activity against viridans group Streptococcus mutans at 1 ug/ml by broth microdilution method
[51] = system: Streptococcus oralis; experiment: Antimicrobial activity against viridans group Streptococcus oralis at 0.25 ug/ml by broth microdilution method
[52] = system: Streptococcus constellatus; experiment: Antimicrobial activity against viridans group Streptococcus constellatus at 1 ug/ml by broth microdilution method
[53] = system: Streptococcus gordonii; experiment: Antimicrobial activity against viridans group Streptococcus gordonii at 0.25 ug/ml by broth microdilution method
[54] = system: Streptococcus intermedius; experiment: Antimicrobial activity against viridans group Streptococcus intermedius at 2 ug/ml by broth microdilution method
[55] = system: Streptococcus mitis; experiment: Antimicrobial activity against viridans group Streptococcus mitis at 0.25 ug/ml by broth microdilution method
[56] = system: Streptococcus mitis; experiment: Antimicrobial activity against viridans group Streptococcus mitis at 2 ug/ml by broth microdilution method
[57] = system: Streptococcus vestibularis; experiment: Antimicrobial activity against viridans group Streptococcus vestibularis at 0.25 ug/ml by broth microdilution method

Q: What does the source list for CC(=O)NC[C@H]1CN(c2ccc(N3CCOCC3)c(F)c2)C(=O)O1 [LINEZOLID]?
A: Inhibition [1]: 1.7%; inhibition at 0.25 µg/mL [2]: 67.8%; inhibition at 0.12 µg/mL [3]: 12%; inhibition at 0.25 µg/mL [4]: 88%; inhibition at 0.5 µg/mL [5]: 4.3%; inhibition at 4 µg/mL [6]: 100%; Inhibition [7]: 0%; inhibition at 2 µg/mL [8]: 96.9%; inhibition at 0.12 µg/mL [9]: 0%; inhibition at 0.25 µg/mL [10]: 2%; inhibition at 0.12 µg/mL [11]: 0.5%; inhibition at 0.12 µg/mL [12]: 3.4%; inhibition at 0.5 µg/mL [13]: 31.8%; inhibition at 2 µg/mL [14]: 100%; inhibition at 0.5 µg/mL [15]: 31.7%; inhibition at 1 µg/mL [16]: 97.2%; inhibition at 2 µg/mL [17]: 100%; Inhibition [18]: 1.7%; inhibition at 0.25 µg/mL [19]: 3.3%; inhibition at 1 µg/mL [20]: 98.3%; inhibition at 0.5 µg/mL [21]: 92.4%; inhibition at 1 µg/mL [22]: 99.6%; Inhibition [23]: 1.5%; inhibition at 0.5 µg/mL [24]: 16.6%; inhibition at 0.25 µg/mL [25]: 3.3%; inhibition at 1 µg/mL [26]: 98.9%; inhibition at 0.5 µg/mL [27]: 33.7%; Inhibition [28]: 0%; inhibition at 1 µg/mL [29]: 30.3%; inhibition at 2 µg/mL [30]: 99.2%; inhibition at 4 µg/mL [31]: 100%; inhibition at 0.25 µg/mL [32]: 0%; inhibition at 2 µg/mL [33]: 100%; inhibition at 1 µg/mL [34]: 46.2%; inhibition at 0.12 µg/mL [35]: 0%; inhibition at 0.5 µg/mL [36]: 0.7%; inhibition at 1 µg/mL [37]: 29.2%; inhibition at 0.25 µg/mL [38]: 16.7%; inhibition at 2 µg/mL [39]: 100%; MIC50 [40]: 1 µg/mL (≈ 2.96 µM); MIC90 [40]: 2 µg/mL (≈ 5.93 µM); MIC50 [41]: 0.25 µg/mL (≈ 0.741 µM); MIC90 [41]: 0.5 µg/mL (≈ 1.48 µM); MIC50 [42]: 0.25 µg/mL (≈ 0.741 µM); MIC90 [42]: 0.25 µg/mL (≈ 0.741 µM); MIC50 [43]: 0.25 µg/mL (≈ 0.741 µM); MIC90 [43]: 0.5 µg/mL (≈ 1.48 µM); MIC50 [44]: 1 µg/mL (≈ 2.96 µM); MIC90 [44]: 2 µg/mL (≈ 5.93 µM); MIC50 [45]: 2 µg/mL (≈ 5.93 µM); MIC90 [45]: 2 µg/mL (≈ 5.93 µM); MIC50 [46]: 2 µg/mL (≈ 5.93 µM); MIC90 [46]: 2 µg/mL (≈ 5.93 µM); MIC50 [47]: 2 µg/mL (≈ 5.93 µM); MIC90 [47]: 2 µg/mL (≈ 5.93 µM); MIC50 [48]: 0.5 µg/mL (≈ 1.48 µM); MIC90 [48]: 1 µg/mL (≈ 2.96 µM); inhibition at 0.25 µg/mL [49]: 0%; inhibition at 1 µg/mL [50]: 89.5%; inhibition at 0.25 µg/mL [51]: 3.6%; inhibition at 1 µg/mL [52]: 98.9%; inhibition at 0.25 µg/mL [53]: 0%; inhibition at 2 µg/mL [54]: 100%; inhibition at 0.25 µg/mL [55]: 4.4%; inhibition at 2 µg/mL [56]: 100%; inhibition at 0.25 µg/mL [57]: 0%

Reference: ChEMBL document CHEMBL1145534 (2007)
